Laboratory results as given in patent US10030030B2, “Crystals of dispiropyrrolidine derivatives” (Daiichi Sankyo Company, Limited, priority 2012, dated 2018).

What was measured:
[1] = test system: human lung cancer-derived cell line NCI-H460 having wild-type p53; test: Cell growth inhibition assay (MTT); assay type: cell-based; conditions: 72 h, NCI-H460 cells, 3 days culture, read-out: cell growth inhibiting effect GI50
Procedure: A cell growth inhibition assay was conducted using human lung cancer-derived cell line NCI-H460 having wild-type p53.
NCI-H460 cells were suspended in a medium (RPMI1640 medium containing 10% fetal bovine serum) and the suspension was inoculated in an amount of 500 cells/150 μL/well to a 96-well multiwell plate. A test compound was dissolved in DMSO and this solution was diluted with medium to prepare a sample solution (DMSO concentration: 1% or lower). On the next day of inoculation, medium nonsupplemented with the test compound or the sample solution was added in an amount of 50 μL/well. […]
A 5 mg/mL MTT (3-(4,5-dimethylthiazol-2-yl)-2,5-diphenyltetrazolium bromide, Sigma-Aldrich Co., M-2128) solution was prepared using a phosphate buffer solution (Dulbecco's Phosphate-buffered Saline). […] The absorbance of each well was measured under conditions of OD 540 nm and reference 660 nm using a plate reader (SpectraMax PLUS384, Molecular Devices, Calif., USA).
The OD value measured on the day of adding the sample solution was defined as S. The OD value measured three days after addition of the sample solution was defined as T. The OD value measured three days after addition of the DMSO dilution was defined as C. […]

[2] = molecular target: T1, Mdm2/p53 binding (His-p53 and GST-Mdm2) (Homo sapiens, UniProt Q00987, L33E); test: Mdm2/p53 binding assay (HTRF); conditions: His-p53 (aa 1-132) / GST-Mdm2 (aa 25-108, L33E), 6.25 nM each, 25° C., 1 hour
T1 construct: Mdm2 amino acids at positions 25 to 108
Procedure: A protein dilution containing 6.25 nM each of His-p53 (fusion protein of a p53 partial protein having p53 amino acids at positions 1 to 132, with a histidine protein) and GST-Mdm2 (fusion protein of a Mdm2 partial protein, having Mdm2 amino acids at positions 25 to 108 with leucine residue 33 substituted by glutamic acid, with glutathione transferase) proteins was prepared using a protein buffer solution (20 mM HEPES pH 7.4, 150 mM NaCl, 0.1% BSA). This protein dilution was added in an amount of 8 μL/well to a 384-well plate (384-well low volume NBC, Corning Inc., catalog No: 3676). […]
Time-resolved fluorescence at 620 and 665 nm was measured at an excitation wavelength of 320 nm using a plate reader (ARVOsx, PerkinElmer Co., Ltd. or PHERAstar, BMG LABTECH). Ratio (R) was calculated using the measured values (RFU 620 nm and RFU 665 nm) according to the following formula: R=(RFU 665 nm−BI−C×RFU 620 nm)/RFU 620 nm
BI: measured value at 665 nm of reaction solution (only each buffer solution) nonsupplemented with each protein, the compound, and the antibodies […]
A and D: each measured value at 665 nm and 620 nm of reaction solution supplemented with only Eu-labeled anti-GST antibody solution.
The R value calculated from the well supplemented with His-p53, GST-Mdm2, the test compound, and each antibody was defined as R (sample). […] T/C was calculated from the formula shown below. […]

T1 sequence (Q00987 25-108 L33E): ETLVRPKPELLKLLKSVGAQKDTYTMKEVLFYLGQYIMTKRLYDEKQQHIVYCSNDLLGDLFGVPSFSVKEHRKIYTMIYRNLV

- GI50 [1]: < 100 nM
- IC50 [2]: ≤ 100 nM
Compound: CC1(C)CCC2(CC1)N[C@@H](C(=O)N[C@@H]1CC[C@@H](C(N)=O)OC1)[C@H](c1ccnc(Cl)c1F)[C@]21C(=O)Nc2cc(Cl)ccc21 [compound (1), (3′R,4′S,5′R)—N-[(3R,6S)-6-carbamoyltetrahydro-2H-pyran-3-yl]-6″-chloro-4′-(2-chloro-3-fluoropyridin-4-yl)-4,4-dimethyl-2″-oxo-1″,2″-dihydrodispiro[cyclohexane-1,2′-pyrrolidine-3′,3″-indole]-5′-carboxamide]
